This note sets out measurements from patent US20260117171A1, “Human Pregnancy on a Chip for Normal and Disease Biomarker Discovery and Preclinical Trials” (Board of Regents, The University of Texas System, priority 2023, published 2026).

The assay relates to CD45+ cells. The assay can be described thus: CD45+ cell trafficking between maternal/fetal compartments in the OOC device in response to an infectious stimulus. Type of assay: cell-based, human. Particulars: LPS as infectious stimulus, preliminary study. The method, then:
Immune cell migration and phenotyping by Cytometry by Time Of Flight (CyTOF) analysis: Preliminary CD45+ cell trafficking studies between the maternal/fetal compartments in the OOC device in response to an infectious stimulus (lipopolysaccharide [LPS]), to mimic bacterial infection, was conducted. In this model, LPS increased CD45+ cell influx into the fetal side and increased inflammation. Similar experiments can be repeated, and cell marker specificity can be tested through flow cytometry and immunocytochemistry^178. To study immunophenotypic changes associated with migrating immune cells, a multiplex tissue imaging technology can be used, e.g., Imaging Mass Cytometry (IMC) at an unprecedented resolution^179. IMC allows highly multiplexed, metal-based detection of 30 different protein markers at the same time, and enables high-dimensional, single-cell analysis of complex cell types without any background noise^180-184 (see Table 3 for a list of key/exemplary antibodies). For IMC, the top PDMS part can be removed so that fixed/attached cells stay on the histological glass slides on which the OOC device is built. IMC technology can be introduced to the OOC field, which allows for the analysis of cellular-level changes in OOC.

On to lipopolysaccharide [LPS], for which the “CD45+ cell influx into the fetal side” value was “increased” and the inflammation result is “increased”.
